According to ChEMBL document CHEMBL5620394, “Synthesis of new antiproliferative 1,3,4-substituted-pyrrolo[3,2-c]quinoline derivatives, biological and in silico insights” (Eur J Med Chem, 2023):
Calls of active or inactive are those of the source. The rule behind the calls is not given here.

Key:
CCRF-CEM = test: Antiproliferative activity against human CCRF-CEM cells assessed as cell growth at 10 uM incubated for 48 hrs by sulforhodamine B assay relative to control; assay type: functional; settings: read-out: Activity
UO-31 = test: Antiproliferative activity against human UO-31 cells assessed as cell growth at 10 uM incubated for 48 hrs by sulforhodamine B assay relative to control; assay type: functional; settings: read-out: Activity
T47D = test: Antiproliferative activity against human T47D cells assessed as cell growth at 10 uM incubated for 48 hrs by sulforhodamine B assay relative to control; assay type: functional; settings: read-out: Activity
PC-3 = test: Antiproliferative activity against human PC-3 cells assessed as cell growth at 10 uM incubated for 48 hrs by sulforhodamine B assay relative to control; assay type: functional; settings: read-out: Activity
UACC-257 = test: Antiproliferative activity against human UACC-257 cells assessed as cell growth at 10 uM incubated for 48 hrs by sulforhodamine B assay relative to control; assay type: functional; settings: read-out: Activity
RPMI-8226 = test: Antiproliferative activity against human RPMI-8226 cells assessed as cell growth at 10 uM incubated for 48 hrs by sulforhodamine B assay relative to control; assay type: functional; settings: read-out: Activity
SNB-75 = test: Antiproliferative activity against human SNB-75 cells assessed as cell growth at 10 uM incubated for 48 hrs by sulforhodamine B assay relative to control; assay type: functional; settings: read-out: Activity
MCF7 [1] = test: Antiproliferative activity against human MCF7 cells assessed as cell growth at 10 uM incubated for 48 hrs by sulforhodamine B assay relative to control; assay type: functional; settings: read-out: Activity
CAKI-1 = test: Antiproliferative activity against human CAKI-1 cells assessed as cell growth at 10 uM incubated for 48 hrs by sulforhodamine B assay relative to control; assay type: functional; settings: read-out: Activity
NCI-H522 = test: Antiproliferative activity against human NCI-H522 cells assessed as cell growth at 10 uM incubated for 48 hrs by sulforhodamine B assay relative to control; assay type: functional; settings: read-out: Activity
MDA-MB-231 = test: Antiproliferative activity against human MDA-MB-231 cells assessed as cell growth at 10 uM incubated for 48 hrs by sulforhodamine B assay relative to control; assay type: functional; settings: read-out: Activity
NCI-H226 = test: Antiproliferative activity against human NCI-H226 cells assessed as cell growth at 10 uM incubated for 48 hrs by sulforhodamine B assay relative to control; assay type: functional; settings: read-out: Activity
SR = test: Antiproliferative activity against human SR cells assessed as cell growth at 10 uM incubated for 48 hrs by sulforhodamine B assay relative to control; assay type: functional; settings: read-out: Activity
K562 = test: Antiproliferative activity against human K562 cells assessed as cell growth at 10 uM incubated for 48 hrs by sulforhodamine B assay relative to control; assay type: functional; settings: read-out: Activity
786-0 = test: Antiproliferative activity against human 786-0 cells assessed as cell growth at 10 uM incubated for 48 hrs by sulforhodamine B assay relative to control; assay type: functional; settings: read-out: Activity
HT-29 = test: Antiproliferative activity against human HT-29 cells assessed as cell growth at 10 uM incubated for 48 hrs by sulforhodamine B assay relative to control; assay type: functional; settings: read-out: Activity
MOLT-4 = test: Antiproliferative activity against human MOLT-4 cells assessed as cell growth at 10 uM incubated for 48 hrs by sulforhodamine B assay relative to control; assay type: functional; settings: read-out: Activity
MCF7 [2] = test: Antiproliferative activity against human MCF7 cells assessed as reduction in cell growth at 10 to 100 uM incubated for 4 hrs by MTS assay; assay type: functional, cell-based; settings: dose 10-100 µM
UACC-62 = test: Antiproliferative activity against human UACC-62 cells assessed as cell growth at 10 uM incubated for 48 hrs by sulforhodamine B assay relative to control; assay type: functional; settings: read-out: Activity
HL-60 = test: Antiproliferative activity against human HL-60 cells assessed as cell growth at 10 uM incubated for 48 hrs by sulforhodamine B assay relative to control; assay type: functional; settings: read-out: Activity
LA-N-5 = test: Antiproliferative activity against human LA-N-5 cells assessed as reduction in cell growth at 10 to 100 uM incubated for 4 hrs by MTS assay; assay type: functional, cell-based; settings: dose 10-100 µM
[3] = Antiproliferative activity against human 16HBE14o- cells assessed as inhibition of cell growth incubated for 4 hrs by MTS assay; assay type: toxicity, cell-based; settings: read-out: IG50
MCF7 [4] = test: Antiproliferative activity against human MCF7 cells assessed as inhibition of cell growth incubated for 4 hrs by MTS assay; assay type: functional
HeLa = test: Antiproliferative activity against human HeLa cells assessed as inhibition of cell growth incubated for 4 hrs by MTS assay; assay type: functional
MDA-MB-468 = test: Antiproliferative activity against human MDA-MB-468 cells assessed as cell growth at 10 uM incubated for 48 hrs by sulforhodamine B assay relative to control; assay type: functional; settings: read-out: Activity
HOP-62 = test: Antiproliferative activity against human HOP-62 cells assessed as cell growth at 10 uM incubated for 48 hrs by sulforhodamine B assay relative to control; assay type: functional; settings: read-out: Activity
HCT-15 = test: Antiproliferative activity against human HCT-15 cells assessed as cell growth at 10 uM incubated for 48 hrs by sulforhodamine B assay relative to control; assay type: functional; settings: read-out: Activity
EKVX = test: Antiproliferative activity against human EKVX cells assessed as cell growth at 10 uM incubated for 48 hrs by sulforhodamine B assay relative to control; assay type: functional; settings: read-out: Activity
HCT-116 = test: Antiproliferative activity against human HCT-116 cells assessed as cell growth at 10 uM incubated for 48 hrs by sulforhodamine B assay relative to control; assay type: functional; settings: read-out: Activity
ACHN = test: Antiproliferative activity against human ACHN cells assessed as cell growth at 10 uM incubated for 48 hrs by sulforhodamine B assay relative to control; assay type: functional; settings: read-out: Activity
IGROV-1 = test: Antiproliferative activity against human IGROV-1 cells assessed as cell growth at 10 uM incubated for 48 hrs by sulforhodamine B assay relative to control; assay type: functional; settings: read-out: Activity
SF-295 = test: Antiproliferative activity against human SF-295 cells assessed as cell growth at 10 uM incubated for 48 hrs by sulforhodamine B assay relative to control; assay type: functional; settings: read-out: Activity
LOX IMVI = test: Antiproliferative activity against human LOX IMVI cells assessed as cell growth at 10 uM incubated for 48 hrs by sulforhodamine B assay relative to control; assay type: functional; settings: read-out: Activity
SK-OV-3 = test: Antiproliferative activity against human SK-OV-3 cells assessed as cell growth at 10 uM incubated for 48 hrs by sulforhodamine B assay relative to control; assay type: functional; settings: read-out: Activity
KM12 = test: Antiproliferative activity against human KM12 cells assessed as cell growth at 10 uM incubated for 48 hrs by sulforhodamine B assay relative to control; assay type: functional; settings: read-out: Activity
A549 = test: Antiproliferative activity against human A549 cells assessed as cell growth at 10 uM incubated for 48 hrs by sulforhodamine B assay relative to control; assay type: functional; settings: read-out: Activity
MDA-MB-435 = test: Antiproliferative activity against human MDA-MB-435 cells assessed as cell growth at 10 uM incubated for 48 hrs by sulforhodamine B assay relative to control; assay type: functional; settings: read-out: Activity

Row | SMILES | growth at 10 µM (CCRF-CEM) | growth at 10 µM (UO-31) | growth at 10 µM (T47D) | growth at 10 µM (PC-3) | growth at 10 µM (UACC-257) | growth at 10 µM (RPMI-8226) | growth at 10 µM (SNB-75) | growth at 10 µM (MCF7 [1]) | growth at 10 µM (CAKI-1) | growth at 10 µM (NCI-H522) | growth at 10 µM (MDA-MB-231) | growth at 10 µM (NCI-H226) | growth at 10 µM (SR) | growth at 10 µM (K562) | growth at 10 µM (786-0) | growth at 10 µM (HT-29) | growth at 10 µM (MOLT-4) | Activity (MCF7 [2]) | growth at 10 µM (UACC-62) | growth at 10 µM (HL-60) | further results
1 | CC(=O)c1c(C)n(C)c2c1c(-c1ccccc1)nc1ccccc12 | 92.7% | 68.8% | 98.9% | 69.8% | 96.4% | 79.4% | 85.8% | 95.6% | 87.2% | 95.6% | 94.3% | 88.4% | 94.7% | 102% | 101% | 112% | 89.4% | Active | 87.8% | 76.8% | 
2 | CC(=O)c1c(C)n(-c2ccccc2)c2c1c(-c1ccc(C)o1)nc1ccccc12 | 74.2% | 79.1% | 99.7% | 69.6% | 90.8% | 70.5% | 93.8% | 88.4% | 85.3% | 71.1% | 73.3% | 41% | 80.3% | 71.6% | 93.6% | 68.4% | 76.7% |  | 85.1% | 63.4% | Activity (LA-N-5): Active
3 | CC(=O)c1c(C)[nH]c2c1c(-c1ccccc1)nc1ccccc12 | 87.2% | 36.6% | 82.5% | 78.6% | 75.1% | 87.9% | 42.3% | 73.7% | 54% | 72.3% | 84.4% | 76.7% | 71.9% | 92.6% | 76.7% | 92.8% | 106% | Active | 62.4% | 82.7% | GI50 at 4 h [3]: 10 µM; IG50 (MCF7 [4]): 10 µM; IG50 (HeLa): 10 µM
4 | CC(=O)c1c(C)[nH]c2c1c(-c1cc(Cl)cc(Cl)c1O)nc1ccccc12 | 58.2% | 56.8% | 61.9% | 71.4% | 118% | 66.7% | 72.8% | 74% | 77.6% | 70% | 72% | 87.4% | 52.2% | 74.8% |  |  | 51.6% |  |  |  | growth at 10 µM (MDA-MB-468): 89.7%; growth at 10 µM (HOP-62): 79.9%; growth at 10 µM (HCT-15): 73.1%; growth at 10 µM (EKVX): 72.8%; growth at 10 µM (HCT-116): 75.2%; growth at 10 µM (ACHN): 71.2%; growth at 10 µM (IGROV-1): 75.6%; growth at 10 µM (SF-295): 74.1%; growth at 10 µM (LOX IMVI): 73.6%; growth at 10 µM (SK-OV-3): 75.2%; growth at 10 µM (KM12): 75.1%; growth at 10 µM (A549): 83.5%; growth at 10 µM (MDA-MB-435): 85.6%
5 | CC(=O)c1c(C)n(-c2ccccc2)c2c1c(-c1ccccc1)nc1ccccc12 | 95.9% | 59.6% | 102% | 85.7% | 98.1% | 87.5% | 75.1% | 89.6% | 72.3% | 77% | 76.3% | 84.2% | 79.5% | 76.8% | 88.5% |  | 77.6% | Active | 70.4% | 90.7% | Activity (LA-N-5): Active
6 | CC(=O)c1c(C)[nH]c2c1c(-c1cc3c(cc1Br)OCO3)nc1ccccc12 | 92% | 61.5% | 91.4% | 85.5% | 105% | 96.9% | 84% | 70.2% | 95.6% | 77% | 88.2% | 99.7% | 74% | 85.2% |  |  | 83.8% |  |  |  | growth at 10 µM (MDA-MB-468): 109%; growth at 10 µM (HOP-62): 91.5%; growth at 10 µM (HCT-15): 97.2%; growth at 10 µM (EKVX): 89.6%; growth at 10 µM (HCT-116): 98.9%; growth at 10 µM (ACHN): 93%; growth at 10 µM (IGROV-1): 82.5%; growth at 10 µM (SF-295): 94.2%; growth at 10 µM (LOX IMVI): 89.3%; growth at 10 µM (SK-OV-3): 96.7%; growth at 10 µM (KM12): 91%; growth at 10 µM (A549): 88.7%; growth at 10 µM (MDA-MB-435): 95.6%
7 | CCOC(=O)c1c(C)n(-c2ccccc2)c2c1c(-c1ccccc1)nc1ccccc12 | 88.8% | 80.8% | 95.9% | 74.5% | 94.7% | 88.1% | 80.4% | 85.1% | 91% | 81.2% | 73.4% | 87% | 89.9% | 86.4% | 86% | 100% | 84.3% |  | 74.7% | 89.1% | 
8 | CC(=O)c1c(C)n(CCCCl)c2c1c(-c1ccc3c(c1)OCO3)nc1ccccc12 | 77.1% | 85.4% | 71.5% | 76.2% | 102% | 83.3% | 69.4% | 83.2% | 86.7% | 63.7% | 95.8% | 115% | 53.1% | 71% |  |  | 67.3% |  |  |  | growth at 10 µM (MDA-MB-468): 101%; growth at 10 µM (HOP-62): 96.7%; growth at 10 µM (HCT-15): 87%; growth at 10 µM (EKVX): 86%; growth at 10 µM (HCT-116): 93.6%; growth at 10 µM (ACHN): 84.4%; growth at 10 µM (IGROV-1): 93.9%; growth at 10 µM (SF-295): 76.7%; growth at 10 µM (LOX IMVI): 90%; growth at 10 µM (SK-OV-3): 97.2%; growth at 10 µM (KM12): 87.3%; growth at 10 µM (A549): 81.7%; growth at 10 µM (MDA-MB-435): 93.6%
